Measurements: patent publication US20130065818A1, “Arylamide Compounds And Compositions And Uses Thereof” (POLYMEDIX, priority 2006, published 2013)
In brackets after ≈: the same amount, converted by molar mass. Read-outs that look alike come from different tables or passages of the source.

Tests used:
[1] = tested on: Moraxella species (including Moraxella catarrhalis); test: MIC, 25 ocular isolates, broth microdilution (Example 8); format: cell-based
Experimental: (§1) Mueller-Hinton Broth supplemented with 2% lysed horse blood in tubes was inoculated with 25 ocular isolates of Streptococcus pneumoniae, Streptococcus viridans group, and Moraxella species (including Moraxella catarrhalis) plus two controls (Staphylococcus aureus and E. coli) and incubated at 37° C. overnight. Additionally, Mueller-Hinton Broth in tubes was inoculated with two controls (Staphylococcus aureus and E. coli) and incubated at 37° C. overnight on a shaker set at 250 rpm.
(§2) On the day of testing, a 640 μg/ml (1280 μg/ml for Serratia marcescens and Pseudomonas aeruginosa) concentration was prepared from a 1% stock solution in 0.01% acetic acid, 0.2% BSA in polypropylene tubes.
(§3) Serial doubling dilutions in 0.01% acetic acid, 0.2% BSA in 96 well polypropylene plates, which are used as reservoirs for the inoculation of the test plates, were carried out to obtain serial dilutions of test agents at 10 times the required test concentrations: 640, 320, 160, 80, 40, 20, 10, 5, 2.5, 1.25, and 0.625 μg/ml (1280, 640, 320, 160, 80, 40, 20, 10, 5, 2.5, and 1.25 μg/ml for Serratia marcescens and Pseudomonas aeruginosa).
(§4) Ten μl of diluted 10×test agents was added to each well of one row of the 96 well polypropylene plates from column 2 to column 12 (column 1 is a control for bacteria alone, with no peptide). Test agent concentrations in columns 2-12 were as follows: 64, 32, 16, 8, 4, 2, 1, 0.5, 0.25, 0.125, and 0.0625 μg/ml (128, 64, 32, 16, 8, 4, 2, 1, 0.5, 0.25, and 0.125 μg/ml for Serratia marcescens and Pseudomonas aeruginosa). The same peptide was in each of the 8 rows. One plate contained dilutions of one test agent and 8 bacterial isolates.
(§5) On the day of testing, the overnight bacterial broth cultures of Streptococcus pneumoniae, Streptococcus viridans and Moraxella species (including Moraxella catarrhalis) plus two controls (Staphylococcus aureus and E. coli) were diluted in 5 ml of trypticase soy broth to yield turbidity equal to a 0.5 McFarland standard. The final inoculum for MIC testing for Streptococcus pneumoniae, Streptococcus viridans and Moraxella species (including Moraxella catarrhalis) was achieved by placing 0.1 ml of the turbidity adjusted sample to 5 ml of Mueller-Hinton broth containing 2% lysed horse red blood cells.
(§6) Ninety μl of the bacterial suspensions was dispensed in each well from column 1 to column 12. Each bacterial isolate was placed in one row of a 96 well polypropylene plate containing the test agents. The plates were placed on shaker at 15 minutes at room temperature, and then incubated at 37° C. overnight. MICs were determined visually as the lowest concentration of drug that inhibits visible bacterial growth.

[2] = tested on: Streptococcus pneumoniae; test: as above; format: cell-based
Experimental: as §1, §2, §3, §4, §5, §6

[3] = n=25 isolates, >64 replaced with 128

N=C(N)NCCCCC(=O)Nc1cc(C(F)(F)F)cc(NC(=O)c2cc(C(=O)Nc3cc(C(F)(F)F)cc(NC(=O)CCCCNC(=N)N)c3O[C@@H]3CCNC3)ncn2)c1O[C@@H]1CCNC1 [Oligomer 4]
MIC ([1]; Moraxella, 25 ocular isolates, Mueller-Hinton broth with 2% lysed horse red blood cells, read-out: Median MIC): ≤ 4 µg/mL
MIC ([1]; Moraxella, isolate 1 K1614 - MS, read-out: MIC): 16 µg/mL (≈ 17.1 µM)
MIC ([1]; Moraxella, isolate 2 K1661 - MS, read-out: MIC): 32 µg/mL (≈ 34.2 µM)
MIC ([1]; Moraxella, isolate 3 K1643 - MS, read-out: MIC): 64 µg/mL (≈ 68.3 µM)
MIC ([1]; Moraxella, isolate 4 K1640 - MS, read-out: MIC): 8 µg/mL (≈ 8.54 µM)
MIC ([1]; Moraxella, isolate 5 B1431 - MS, read-out: MIC): 32 µg/mL (≈ 34.2 µM)
MIC ([1]; Moraxella, isolate 6 B1429 - MS, read-out: MIC): 1 µg/mL (≈ 1.07 µM)
MIC ([1]; Moraxella, isolate 7 B1418 - MS, read-out: MIC): 32 µg/mL (≈ 34.2 µM)
MIC ([1]; Moraxella, isolate 8 K1784 - MS, read-out: MIC): 64 µg/mL (≈ 68.3 µM)
MIC ([1]; Moraxella, isolate 9 K1773 - MS, read-out: MIC): 64 µg/mL (≈ 68.3 µM)
MIC ([1]; Moraxella, isolate 10 K1369 - MS, read-out: MIC): 2 µg/mL (≈ 2.13 µM)
MIC ([1]; Moraxella, isolate 11 B1275 - MS, read-out: MIC): 2 µg/mL (≈ 2.13 µM)
MIC ([1]; Moraxella, isolate 12 B1221 - MS, read-out: MIC): 2 µg/mL (≈ 2.13 µM)
MIC ([1]; Moraxella, isolate 13 B1172 - MS, read-out: MIC): > 64 µg/mL
MIC ([1]; Moraxella, isolate 14 E542 - MS, read-out: MIC): 2 µg/mL (≈ 2.13 µM)
MIC ([1]; Moraxella, isolate 15 K678 - MS, read-out: MIC): 2 µg/mL (≈ 2.13 µM)
MIC ([1]; Moraxella, isolate 16 K660 - MS, read-out: MIC): 2 µg/mL (≈ 2.13 µM)
MIC ([1]; Moraxella, isolate 17 K599 - MC, read-out: MIC): 0.5 µg/mL (≈ 0.534 µM)
MIC ([1]; Moraxella, isolate 18 K1650 - MC, read-out: MIC): 64 µg/mL (≈ 68.3 µM)
MIC ([1]; Moraxella, isolate 19 K1373 - MC, read-out: MIC): 1 µg/mL (≈ 1.07 µM)
MIC ([1]; Moraxella, isolate 20 K1553 - MC, read-out: MIC): 4 µg/mL (≈ 4.27 µM)
MIC ([1]; Moraxella, isolate 21 K1453 - MC, read-out: MIC): 4 µg/mL (≈ 4.27 µM)
MIC ([1]; Moraxella, isolate 22 K1227 - MC, read-out: MIC): 2 µg/mL (≈ 2.13 µM)
MIC ([1]; Moraxella, isolate 23 B1102 - MC, read-out: MIC): 1 µg/mL (≈ 1.07 µM)
MIC ([1]; Moraxella, isolate 24 K1819 - MC, read-out: MIC): 4 µg/mL (≈ 4.27 µM)
MIC ([1]; Moraxella, isolate 25 K1855 - MC, read-out: MIC): 2 µg/mL (≈ 2.13 µM)
MIC50 ([1]; Moraxella, n=25 isolates, >64 replaced with 128, read-out: MIC50): 4 µg/mL (≈ 4.27 µM)
MIC90 ([1]; Moraxella, n=25 isolates, >64 replaced with 128, read-out: MIC90): 64 µg/mL (≈ 68.3 µM)
MIC ([1]; Moraxella, n=25 isolates, >64 replaced with 128, read-out: Median MIC): 4 µg/mL (≈ 4.27 µM)
MIC50 [1, 3]: 4 µg/mL (≈ 4.27 µM)
MIC90 [1, 3]: 64 µg/mL (≈ 68.3 µM)
Range of MICs [1, 3]: 0.5 to 128 µg/mL
MIC50 ([2]; 25 isolates, Row 13): 1 µg/mL (≈ 1.07 µM)
MIC90 ([2]; 25 isolates, Row 22): 2 µg/mL (≈ 2.13 µM)
Range of MICs ([2]; 25 isolates, Summary of Results, >64 was Replaced with 128): 0.5 to 128 µg/mL
MIC ([2]; Streptococcus pneumoniae, 25 ocular isolates, Mueller-Hinton broth with 2% lysed horse red blood cells, read-out: Median MIC): ≤ 4 µg/mL
MIC ([2]; Streptococcus pneumoniae, isolate 1—B1386, read-out: MIC): > 64 µg/mL
MIC ([2]; Streptococcus pneumoniae, isolate 2—B1380, read-out: MIC): 1 µg/mL (≈ 1.07 µM)
MIC ([2]; Streptococcus pneumoniae, isolate 3—B1378, read-out: MIC): 1 µg/mL (≈ 1.07 µM)
MIC ([2]; Streptococcus pneumoniae, isolate 4—B1377, read-out: MIC): 2 µg/mL (≈ 2.13 µM)
MIC ([2]; Streptococcus pneumoniae, isolate 5—B1373, read-out: MIC): 1 µg/mL (≈ 1.07 µM)
MIC ([2]; Streptococcus pneumoniae, isolate 6—B1367, read-out: MIC): 1 µg/mL (≈ 1.07 µM)
MIC ([2]; Streptococcus pneumoniae, isolate 7—B1355, read-out: MIC): 2 µg/mL (≈ 2.13 µM)
MIC ([2]; Streptococcus pneumoniae, isolate 8—B1353, read-out: MIC): 1 µg/mL (≈ 1.07 µM)
MIC ([2]; Streptococcus pneumoniae, isolate 9—B1351, read-out: MIC): 1 µg/mL (≈ 1.07 µM)
MIC ([2]; Streptococcus pneumoniae, isolate 10—B1339, read-out: MIC): 1 µg/mL (≈ 1.07 µM)
MIC ([2]; Streptococcus pneumoniae, isolate 11—B1337, read-out: MIC): 0.5 µg/mL (≈ 0.534 µM)
MIC ([2]; Streptococcus pneumoniae, isolate 12—B1335, read-out: MIC): 2 µg/mL (≈ 2.13 µM)
MIC ([2]; Streptococcus pneumoniae, isolate 13—B1334, read-out: MIC): 1 µg/mL (≈ 1.07 µM)
MIC ([2]; Streptococcus pneumoniae, isolate 14—B1333, read-out: MIC): 1 µg/mL (≈ 1.07 µM)
MIC ([2]; Streptococcus pneumoniae, isolate 15—B1255, read-out: MIC): 0.5 µg/mL (≈ 0.534 µM)
MIC ([2]; Streptococcus pneumoniae, isolate 16—B1288, read-out: MIC): 1 µg/mL (≈ 1.07 µM)
MIC ([2]; Streptococcus pneumoniae, isolate 17—B1287, read-out: MIC): 1 µg/mL (≈ 1.07 µM)
MIC ([2]; Streptococcus pneumoniae, isolate 18—B1272, read-out: MIC): 0.5 µg/mL (≈ 0.534 µM)
MIC ([2]; Streptococcus pneumoniae, isolate 19—B1264, read-out: MIC): 0.5 µg/mL (≈ 0.534 µM)
MIC ([2]; Streptococcus pneumoniae, isolate 20—B1252, read-out: MIC): 1 µg/mL (≈ 1.07 µM)
MIC ([2]; Streptococcus pneumoniae, isolate 21—B1245, read-out: MIC): 0.5 µg/mL (≈ 0.534 µM)
MIC ([2]; Streptococcus pneumoniae, isolate 22—B1211, read-out: MIC): 1 µg/mL (≈ 1.07 µM)
MIC ([2]; Streptococcus pneumoniae, isolate 23—B1213, read-out: MIC): 1 µg/mL (≈ 1.07 µM)
MIC ([2]; Streptococcus pneumoniae, isolate 24—B1208, read-out: MIC): 0.5 µg/mL (≈ 0.534 µM)
MIC ([2]; Streptococcus pneumoniae, isolate 25—B1214, read-out: MIC): 1 µg/mL (≈ 1.07 µM)
MIC ([2]; Streptococcus pneumoniae, n=25 per group, read-out: Median MIC): 1 µg/mL (≈ 1.07 µM)
MIC50 ([2]; Streptococcus pneumoniae, 25 isolates, Summary of Results, read-out: MIC50): 1 µg/mL (≈ 1.07 µM)
MIC90 ([2]; Streptococcus pneumoniae, 25 isolates, Summary of Results, read-out: MIC90): 2 µg/mL (≈ 2.13 µM)
MIC ([2]; Streptococcus pneumoniae, 25 isolates, Summary of Results, read-out: Median MIC): 1 µg/mL (≈ 1.07 µM)
MIC50 ([2]; n=25 per group): 1 µg/mL (≈ 1.07 µM)
MIC90 ([2]; n=25 per group): 2 µg/mL (≈ 2.13 µM)
Range of MICs ([2]; n=25 per group): 0.5 to 128 µg/mL
